From ChEMBL document CHEMBL4261534, “Synthesis, α-glucosidase inhibition and molecular docking studies of novel thiazolidine-2,4-dione or rhodanine derivatives” (Medchemcomm, 2017)

Biological target: alpha-glucosidase (Saccharomyces cerevisiae)
Assay: Inhibition of alpha-glucosidase (unknown origin) using p-nitrophenyl alpha-D-glucopyranoside as substrate preincubated for 15 mins followed by substrate addition measured after 30 mins by spectrophotometric method

IC50 [µM] | SMILES
35.14 | COc1cc(/C=C2\SC(=O)NC2=O)ccc1OCN1C(=O)c2ccccc2C1=O
50.45 | O=C1NC(=O)/C(=C/c2cc([N+](=O)[O-])ccc2OCN2C(=O)c3ccccc3C2=O)S1
22.48 | O=C1NC(=O)/C(=C/c2ccc(OCN3C(=O)c4ccccc4C3=O)c([N+](=O)[O-])c2)S1
35.79 | O=C1NC(=S)S/C1=C\c1cc([N+](=O)[O-])ccc1OCN1C(=O)c2ccccc2C1=O
> 100 | O=C1NC(=O)/C(=C/c2ccccc2OCN2C(=O)c3ccccc3C2=O)S1
16.11 | COc1cc(/C=C2\SC(=S)NC2=O)ccc1OCN1C(=O)c2ccccc2C1=O
7.72 | CCOc1cc(/C=C2\SC(=S)NC2=O)ccc1OCN1C(=O)c2ccccc2C1=O
39.81 | COc1cc(/C=C2\SC(=S)NC2=O)cc(OC)c1OCN1C(=O)c2ccccc2C1=O
25.6 | O=C1NC(=O)/C(=C/c2ccc(OCN3C(=O)c4ccccc4C3=O)cc2)S1
> 100 | O=C1NC(=S)S/C1=C\c1ccccc1OCN1C(=O)c2ccccc2C1=O
> 100 | COc1cc(/C=C2\SC(=O)NC2=O)cc(OC)c1OCN1C(=O)c2ccccc2C1=O
34.82 | O=C1NC(=S)S/C1=C\c1cc(Cl)ccc1OCN1C(=O)c2ccccc2C1=O
> 100 | O=C1NC(=O)/C(=C/c2cccc(OCN3C(=O)c4ccccc4C3=O)c2)S1
29.26 | CCOc1cc(/C=C2\SC(=O)NC2=O)ccc1OCN1C(=O)c2ccccc2C1=O
> 100 | O=C1NC(=O)/C(=C/c2cc(Cl)ccc2OCN2C(=O)c3ccccc3C2=O)S1
33.98 | O=C1NC(=S)S/C1=C\c1cccc(OCN2C(=O)c3ccccc3C2=O)c1
5.44 | O=C1NC(=S)S/C1=C\c1ccc(OCN2C(=O)c3ccccc3C2=O)c(Cl)c1
20.95 | O=C1NC(=O)/C(=C/c2ccc(OCN3C(=O)c4ccccc4C3=O)c(Cl)c2)S1
7.91 | O=C1NC(=S)S/C1=C\c1ccc(OCN2C(=O)c3ccccc3C2=O)cc1
> 100 | COc1cccc(/C=C2\SC(=S)NC2=O)c1OCN1C(=O)c2ccccc2C1=O
6.59 | O=C1NC(=S)S/C1=C\c1ccc(OCN2C(=O)c3ccccc3C2=O)c([N+](=O)[O-])c1
> 100 | COc1cccc(/C=C2\SC(=O)NC2=O)c1OCN1C(=O)c2ccccc2C1=O
